Literature values, collected in patent US20020022041A1, “Composition and process for treating pollution” (priority 2000, published 2002).

details: non-toxic as defined by Section 313 Title III of SARA

Row | Structure (SMILES) | Toxicity
1 | CCCCOCCOCCO [2-, 2-(2-butoxyethoxy)ethanol] | Non toxic
2 | CCCCCCCCCCCCOP(=O)(O)O [Lauryl Phosphate Soln, Lauryl Phosphate] | Non toxic
3 | CCCCCCCC/C=C\CCCCCCCC(=O)O [Oleic Acid] | Non toxic
